Legend:
[1] = tested on: guinea pig gall bladder contracted with CCK-8; assay: Anti-CCK activity on guinea pig gall bladders in vitro; format: biochemical; conditions: CCK-8 10 ng/ml, concentration antagonising 50% of contracting effect
Experimental: A longitudinal strip of guinea pig gall bladder is placed in a bath of Krebs for isolated organs at a temperature of 32° C. and oxygenated continuously with an oxygen-CO2 mixture (95-5 V/V).
The […] contractions are detected by means of a force transducer and recorded.
The gall bladder is contracted with the use of a CCK-8 solution at a concentration of 10 ng/ml; the antagonistic activity of the compounds of the invention towards the contracting effect of the CCK is determined with the use of different concentrations, the ED50 value, that is the concentration of the compound in mcg/ml capable of antagonising 50% of the contracting effect of the CCK, being determined.
The results obtained are set out in the following table which gives the compounds tested and the ED50 values which are calculated by the method of regression on a test of at least three experiments for each compound studied.

[2] = tested on: analgesic activity of morphine; assay: Tail Flick Test: increase in the analgesic effect of morphine; format: in vivo, rats; conditions: for percentage variation in the latency of the pain sensation, 10' / percentage variation in the latency of the pain sensation, 20' / percentage variation in the latency of the pain sensation, 30' / percentage variation in the latency of the pain sensation, 45' / percentage variation in the latency of the pain sensation, 60' / percentage variation in the latency of the pain sensation, 90' / M(10'-90') average percentage variation: compound 10 mg/kg i.p. + morphine 2 mg/kg (row Morphine: alone); for percentage variation in the latency of the pain sensation, 10' / percentage variation in the latency of the pain sensation, 20' / percentage variation in the latency of the pain sensation, 30' / percentage variation in the latency of the pain sensation, 45' / percentage variation in the latency of the pain sensation, 60' / percentage variation in the latency of the pain sensation, 90': ± S.E.; for M(10'-90') average percentage variation: mean 10'-90'; for Potency ratio relative to morphine alone: rat, in vivo
Experimental: Increase in the analgesic effect of analgesic-narcotic drugs in rats in the Tail Flick Test
The method is that described by Harris et al. (J. Pharmacol. Exp. Ther. 143 (1964) 141-148).
Male rats are used which have a weight of about 150-200 g and which have not been fasting. A point is chosen on the tail and this is irradiated by a heat source (75° C.) and the time (in seconds) for which the animal remains without moving its tail is measured.
A maximum period of time under the heat source of 8 seconds is chosen after which the animal is, in any case, removed in order to avoid tissue damage. The measurement is effected before (controls) and after treatment with the drugs.
. The percentage variation is calculated for each individual animal by the following formula: [formula] The measurements are carried out 10, 20, 30, 45, 60 and 90 minutes after treatment with the analgesics.
The results obtained are given in Table 1 which records the groups treated and the doses administered, the
average percentage variations (calculated on groups of five animals) in […]

[3] = tested on: activity of analgesic drugs; assay: Hot plate test: potentiation of analgesic drugs; format: in vivo, rats; conditions: analgesic alone i.p. (Prop 15, Oxy 50, Asa 100 mg/kg); for Positive Total X/25: 10'-60'
Experimental: The method is that described by Eddy et al. (J. Pharmac. Exp. Ther. 107, 385 (1953)).
Groups of five male rats having a weight of about 150 g and which have not been fasting are used.
The animals are placed on a metal plate which is on the bottom of a transparent cylinder heated to 55°±1° C. by an azeotropic boiling mixture (1:1 acetone-ethyl formate). The time which passes between the moment at which the animal is placed on the hot plate and the moment at which it licks its feet or tries to jump out of the cylinder is defined as the reaction time. The control reaction time is measured 10 and 5 minutes before the administration of the drugs and 10, 20, 30, 45, 60, 90 minutes afterwards. The animals are left on the plate for a maximum period of 30 seconds.
The response to the administration of the product is considered positive if at least a doubling of the normal reaction time is seen. The results obtained are given in Table 2 which records the groups treated, the dose administered and the stay times on the plate expressed as the number of positive responses over the number treated.

[4] = tested on: tolerance induced by morphine; assay: Antagonism to the development of tolerance to repeated administration of morphine HCl (tail flick); format: in vivo, rats
Experimental: Several of the compounds of the invention were examined to determine any capacity to antagonise the development of tolerance induced by morphine. Groups of six male rats having a weight of about 200-250 were used.
At intervals of 24 hours from the first treatment (time 0), each animal (except for the control group treated with a physiological solution) received 3 mg/kg of morphine hydrochloride i.p. together with 3 mg/kg i.p. of the compounds indicated (with the exception of the group treated solely with morphine).
The determination of the threshold for the pain stimulus was effected at 15°, 30', 45' and 60' intervals from the treatment by the "tail flick" test.

Row | Structure (SMILES) | Anti CCK-8 activity, ED50 [1] | percentage variation in the latency of the pain sensation, 10' [2] | percentage variation in the latency of the pain sensation, 20' [2] | percentage variation in the latency of the pain sensation, 30' [2] | percentage variation in the latency of the pain sensation, 45' [2] | percentage variation in the latency of the pain sensation, 60' [2] | percentage variation in the latency of the pain sensation, 90' [2] | M(10'-90') average percentage variation [2] | Potency ratio relative to morphine alone [2] | positive responses over the number treated, 10' [3] | Positive Total X/25 [3] | positive responses over the number treated, 20' [3] | positive responses over the number treated, 30' [3] | positive responses over the number treated, 45' [3] | positive responses over the number treated, 60' [3] | further results
1 | Cc1ccc(COC(=O)N[C@@H](Cc2c[nH]c3ccccc23)C(=O)O)cc1Cl [Compound 10] | 88.5 µg/mL | 51.5 ± 48.9% | 58.3 ± 16.5% | 66.0 ± 14.1% | 56.9 ± 17.0% | 56.2 ± 23.5% | 34.2 ± 8.4% | 55.5% | 1.86 |  |  |  |  |  |  | 
2 | CCc1ccc(C(=O)N[C@@H](Cc2c[nH]c3ccccc23)C(=O)O)cc1 [Compound 19] | 135.2 µg/mL | 41.9 ± 12.8% | 43.9 ± 19.5% | 61.3 ± 18.1% | 49.4 ± 19.5% | 28.5 ± 17.0% | 14.4 ± 12.9% | 39.9% | 1.34 |  |  |  |  |  |  | 
3 | O=C(N[C@@H](Cc1c[nH]c2ccccc12)C(=O)O)OCc1ccc(Br)cc1 [Compound 3] | 33.6 µg/mL | 70.7 ± 19.7% | 90.3 ± 9.7% | 74.7 ± 16.9% | 86.2 ± 11.0% | 100.0 ± 0.0% | 53.7 ± 17.2% | 79.3% | 2.66 |  |  |  |  |  |  | 
4 | CCCc1ccc(C(=O)N[C@@H](Cc2c[nH]c3ccccc23)C(=O)O)cc1 [Compound 22] | 25.7 µg/mL | 18.5 ± 5.3% | 39.3 ± 10.5% | 32.2 ± 7.9% | 37.1 ± 13.9% | 35.5 ± 10.0% | 24.5 ± 6.6% | 31.2% | 1.05 |  |  |  |  |  |  | 
5 | O=C(N[C@@H](Cc1c[nH]c2ccccc12)C(=O)O)OCc1ccc(I)cc1 [Compound 4] | 48.2 µg/mL | 62.8 ± 22.8% | 76.9 ± 14.4% | 85.3 ± 13.9% | 56.4 ± 18.2% | 48.1 ± 16.9% | 19.4 ± 11.1% | 58.2% | 1.95 |  |  |  |  |  |  | 
6 | CCC(=O)O[C@](Cc1ccccc1)(c1ccccc1)[C@H](C)CN(C)C [Propoxyphene, reference compound] |  |  |  |  |  |  |  |  |  | 2/5 | 11 | 2/5 | 3/5 | 3/5 | 1/5 | 
7 | CCCCC1C(=O)N(c2ccccc2)N(c2ccc(O)cc2)C1=O (centres unmarked) [Oxyphenylbutazone, reference compound] |  |  |  |  |  |  |  |  |  | 2/5 | 7 | 1/5 | 2/5 | 2/5 | 0/5 | 
8 | CN1CC[C@]23c4c5ccc(O)c4O[C@H]2[C@@H](O)C=C[C@H]3[C@H]1C5 [Morphine, morphine, reference compound] |  | 10.8 ± 4.0% | 54.2 ± 17.0% | 46.6 ± 21.0% | 41.7 ± 16.0% | 32.0 ± 17.0% | -6.4 ± 10.0% | 29.8% |  |  |  |  |  |  |  | percentage variation in the latency time, day 0 ([4]; day 0, 3 mg/kg i.p. + morphine HCl 3 mg/kg i.p. (row Morphine: alone)): 35.83%; percentage variation in the latency time, day 1 ([4]; day 1, 3 mg/kg i.p. + morphine HCl 3 mg/kg i.p. (row Morphine: alone)): 37.43%; percentage variation in the latency time, day 2 ([4]; day 2, 3 mg/kg i.p. + morphine HCl 3 mg/kg i.p. (row Morphine: alone)): 30.33%; percentage variation in the latency time, day 3 ([4]; day 3, 3 mg/kg i.p. + morphine HCl 3 mg/kg i.p. (row Morphine: alone)): 16.06%; percentage variation in the latency time, day 4 ([4]; day 4, 3 mg/kg i.p. + morphine HCl 3 mg/kg i.p. (row Morphine: alone)): 22.46%; percentage variation in the latency time, day 5 ([4]; day 5, 3 mg/kg i.p. + morphine HCl 3 mg/kg i.p. (row Morphine: alone)): 9.63%; percentage variation in the latency time, day 6 ([4]; day 6, 3 mg/kg i.p. + morphine HCl 3 mg/kg i.p. (row Morphine: alone)): 7.28%; percentage variation in the latency time, day 7 ([4]; day 7, 3 mg/kg i.p. + morphine HCl 3 mg/kg i.p. (row Morphine: alone)): 1.95%; regression line % Effect versus Day ([4]; days 0-7, 3 mg/kg + morphine (row Morphine: alone)): % Effect = - 5.34 Day + 38.72; day on which activity falls to 0 / inactive level is reached ([4]; from the straight lines of regression, groups C, D and E extrapolated): sixth
9 | CC(=O)Oc1ccccc1C(=O)O [Acetylsalicylic acid, reference compound] |  |  |  |  |  |  |  |  |  | 1/5 | 7 | 2/5 | 2/5 | 2/5 | 0/5 | 
